Patent US9497963B2, “Methods and compositions for control of gypsy moth, Lymantria dispar” (Simon Fraser University, priority 2008, dated 2016)
Where two headings read alike, the source gives them in different places. Marks after values point to notes of the source that are not given here.

How the values were obtained:
Set-up in all cases: species or system Lymantria dispar
[1] = system: male gypsy moth antenna; test: Coupled gas chromatographic-electroantennographic detection (GC-EAD); settings: EAD peak size and shape (sharp/broad)
Text: In GC-EAD assays, the analyte is processed by gas chromatography (GC). The column effluent is split, such that molecules of each chromatographic peak arrive simultaneously at the flame ionization detector of the GC and at an anectomized but otherwise intact insect antenna as the biological detector. This procedure detects specific compounds in the analyte that elicit an electrical potential from the antenna.
For GC-EAD recordings, an antenna was carefully dislodged from a male moth's head, and the antennal base placed into the opening of a glass capillary electrode (0.58 mm ID×65 mm length) (A-M Systems, Inc., Carlsborg, Wash., USA) filled with saline solution. The tip of the antenna was removed by spring microscissors (Fine Science Tools Inc., North Vancouver, British Columbia, Canada) and then placed into the opening of the recording electrode mounted on a portable micromanipulator and positioned in front of a constant stream of warm air (Praxair Canada Inc., Mississauga, Ontario, Canada) which delivered the GC column eluent. […] Identical retention times of compounds detected by the flame ionization detector of the GC and by the insect antenna allowed assignment of antennal responses to specific compounds in the eluent.

[2] = system: response of L. dispar antennae to (+)-disparlure; test: Competitive electroantennogram (EAG) screen, inhibition of response to (+)-disparlure (Example 4); settings: Lymantria dispar, means ± S.E.
Description: In this assay, libraries and individual compounds are tested for their ability to inhibit the antennal response to the sex attractant pheromone of the gypsy moth, (7R,8S) 2-methyl-7,8-epoxyoctadecane, also known as (+)-disparlure. The controls consisted of a puff of clean air (negative) or of air passed over a cartridge impregnated with (+)-disparlure (100 ng) (positive). The treatments consisted of 100 ng of (+)-disparlure in combination with a compound or library at 1, 10 or 100 μg, on a cartridge over which the air puff was passed. The small arrows above the trace denote the times where the air was puffed over the antenna.
For some compounds, such as the para Compounds 2c{n}, 2c{n,n} and libraries 3c{n,1-5}, EAG competitive assays were performed to investigate whether the diethers inhibit the response of L. dispar antennae to the main component of the sex attractant pheromone cis-(7R,8S)-epoxy-2-methyloctadecane [(+)-disparlure] (FIG. 4). For EAGs a male moth antenna was mounted and placed in front of a stimulus-delivery glass tubing (160×5 mm ID) with a side orifice (2 mm diam) near (2 cm) the distal opening. The tubing was connected to one port of an apparatus (Stimulus Controller CS-05, Syntech Research and Equipment, NL-1200BM Hilversum, The Netherlands) that generated a constant stream of clean air (300 ml/min). The second port of the apparatus was connected to a Pasteur pipette inserted through the side orifice of the stimulus-delivery tubing. The test stimulus was applied to a disc of Whatman #1 filter paper inside the Pasteur pipette and was discharged through a 0.3-sec pulse of air (600 ml/min) Receptor potentials of the antennae in response to test stimuli were recorded with a Syntech IDAC probe, amplifier and interfaced board, and were analyzed with EAG Syntech Software Version 2.4 (1996) Inhibition (%) was calculated as: % inhibition=(Dd−Ds)/Dd×100 (eq. 1)
Where Dd is the depolarization observed with pure disparlure (corrected for clean air background) and Ds is the depolarization with disparlure+sample. See FIG. 4 for a representative EAG inhibition assay trace.

[3] = system: male gypsy moth antenna response to pheromone (+)-1; test: EAG short-term (STI) and long-term (LTI) inhibition of pheromone signaling (Example 5); settings: for inhibition at 0.001 mg / inhibition at 0.01 mg / inhibition at 0.1 mg / inhibition at 100 µg, 0.1 mg: Lymantria dispar; for inhibition at 0.001 mg / inhibition at 0.01 mg / inhibition at 0.1 mg / Activity (%): short-term inhibition (STI): negative = enhancement; for inhibition at 0.001 mg / inhibition at 0.01 mg / inhibition at 0.1 mg: read-out: Activity (%): short-term inhibition (STI); for inhibition at 100 µg, 0.1 mg: read-out: Activity (%): long-term inhibition (LTI)
Description: The puffs are numbered i-vi and were: i=air, ii=pure pheromone (+)-disparlure, (+)-1, (100 ng), iii-v=disparlure mixed with the test compound, the latter at three different doses, vi=pure (+)-1. Depolarizations from the resting potential are labeled d; hyperpolarizations seen during the recovery phase after a puff are labeled r. Subscripts refer to the puff number. FIG. 5A. Typical trace for compound 3c{2,3}. FIG. 5B. Typical trace for compound 3a{4,4}.
For other compounds, EAG traces were recorded as follows: a fully dislodged antenna from a male gypsy moth was mounted on the end of a reference electrode (a glass capillary with a silver wire, filled with buffered saline: 5 mM NaH2PO4, 10 mM Na2SO4, 4.5 mM KHCO3, 18 mM MgCl2, 4 mM CaCl2, 6 mM KCl, the pH is adjusted to 6.8 using 5 mM Na2HPO4). The tip of the antenna was severed with microscissors and placed in the recording electrode, which was mounted on a micromanipulator. A constant stream of air, that had been purified (charcoal filter), was blown over the antenna at a rate of 300 mL/min. Test samples were delivered through a stimulus delivery tube with a side opening 2 cm from the distal opening. The proximal end of the delivery tube was connected to a controlled stimulus delivery apparatus (Stimulus controller CS-05 Syntech Research and Equipment, NL 1200BM, Hilversum, The Netherlands). The distal end of the delivery tube pointed at the antenna (1 cm from the antenna). The side opening was connected to a cartridge fashioned from a Pasteur pipette which contained a small filter paper (Whatman No. 1) with the stimulus. These pipette cartridges could be prepared a few days in advance and stored at −80° C. wrapped in Al foil and in sealable plastic bags. Sample cartridges were mounted once they had reached room temperature. The stimulus delivery apparatus delivered a second stream of air (a puff) through the Pasteur pipette at a velocity of 600 mL/min, at a specified point in time, for 0.3 s. Receptor potentials of the antennae in response to test stimuli were recorded with a Syntech IDAC probe, amplifier and interfaced board, and were analyzed with EAG Syntech Software Version 2.4 (1996). See FIG. 4 for a representative EAG trace. The EAG traces were evaluated as follows (see FIG. 5).
The net depolarizations, d(net) (in mV), of puffs ii-vi,d(sample), (corrected for the depolarization with clean air, d(air)) d(net)=d(sample)−d(air) (Eq. 1)
The percentage short-term inhibition for each compound (STI(compound)) of puffs iii-v, relative to the first pure pheromone puff (ii) STI(compound)=100×(d(net)(ii)−d(net)(compound))/d(net)(ii) (Eq. 2)
c) the percentage long-term inhibition for each compound (LTI(compound)) of the pure pheromone puff that followed the last mixed puff (vi) relative to the first pure pheromone puff (ii) LTI(compound)=100×(d(net)(ii)−d(net)(vi))/d(net)(ii) (Eq. 3)
The compounds we tested gave weak or no olfactory responses by themselves in electroantennogram (EAG) experiments. The EAG trace reflects the change in the potential across the antenna when an air puff with an odorant is passed over the antenna. To understand the agonistic or antagonistic effect of the compounds on pheromone responses by male moth antennae, four types of EAG experiment were conducted. First, the response of the antenna elicited by a stimulus of pure (+)-1 was compared to the responses elicited by blends of (+)-1 with the test compound (FIG. 5). […] This effect was termed short-term inhibition (STI). […] Second, the time decay and dose responses for LTI activities were studied. Third, the strongest inhibitors were tested for their ability to cause LTI by themselves.
This experiment explored the agonistic or antagonistic activity of the synthetic aromatic compounds (Scheme 1 and eugenol and alkyl eugenols) with the gypsy moth pheromone (+)-1. […]

[4] = mixed plume (+)-1 100 ng + compound 1 μg, mean ± S.E.
[5] = mixed plume (+)-1 100 ng + compound 10 μg, mean ± S.E.
[6] = mixed plume (+)-1 100 ng + compound 100 μg (puff v), mean ± S.E.
[7] = pure (+)-1 100 ng plume following mixed plume with 100 μg compound, mean ± S.E.

SMILES | GC-EAD activity [1] | inhibition at 0.001 mg ([2]; dose 1 μg on cartridge) | inhibition at 0.01 mg ([2]; dose 10 μg on cartridge) | inhibition at 0.1 mg ([2]; dose 100 μg on cartridge) | inhibition at 0.001 mg [3, 4] | inhibition at 0.01 mg [3, 5] | inhibition at 0.1 mg [3, 6] | inhibition at 100 µg, 0.1 mg [3, 7] | short-term effect on antennal pheromone response (in words) [3] | Activity (%): short-term inhibition (STI) [3, 4] | Activity (%): short-term inhibition (STI) [3, 5] | Activity (%): short-term inhibition (STI) [3, 6] | Activity (%): long-term inhibition (LTI) [3, 7] | inhibition at 100 µg, 0.1 mg [3]
CCOc1ccc(O)cc1 [2c{2}, 4-Ethoxy phenol] | None | 49 ± 10% | 64 ± 9% | 45 ± 8% | -3 ± 4% | 55 ± 5% | 47 ± 5% | 7 ± 4% |  |  |  |  |  | 
CCCCOc1cccc(O)c1 [2b{4}, 3-butoxyphenol] | None |  |  |  | -6 ± 18% | -20 ± 31% | -74 ± 71% | -1 ± 15% | short-term enhancements |  |  |  |  | 
C=CCOc1cccc(O)c1 [2b{6}] | None |  |  |  |  |  |  |  |  | 24 ± 23 (7) % | 28 ± 20 (7) % | 5 ± 32 (7) % | 1 ± 7 (7) % | 
C=CCc1ccc(OCCCC)c(OC)c1 [Bu eugenol] | None |  |  |  |  |  |  |  |  | 39 ± 17 (6) % | −68 ± 29 (6) % | −116 ± 24 (6) % | 7 ± 4 (6) % | 
CCOc1ccccc1O [2a{2}, 2-Ethoxy phenol] | None |  |  |  | 42 ± 12% | 26 ± 12% | 58 ± 11% | 6 ± 4% |  |  |  |  |  | 
CCCOc1cccc(OCCC)c1 [3b{3,3}, 1,3-Dipropoxy benzene] | None |  |  |  | 36 ± 11% | 1 ± 26% | -2 ± 34% | 45 ± 12% |  |  |  |  |  | 
CCCCOc1ccccc1O [2a{4}, 2-Butoxy phenol] | None |  |  |  | 26 ± 12% | 21 ± 11% | 50% | 5 ± 6% |  |  |  |  |  | 
C=CCOc1ccc(O)cc1 [2c{6}, 4-Allyloxy phenol] | None |  |  |  | 19 ± 10% | 42 ± 8% | 46 ± 10% | 24 ± 8% |  |  |  |  |  | 
CCCCOc1cccc(OCCCC)c1 [3b{4,4}, 1,3-Dibutoxy benzene] | None |  |  |  | 4 ± 45% | -72 ± 91% | -42 ± 93% | 8 ± 9% |  |  |  |  |  | 
C=CCOc1cccc(OCC=C)c1 [3b{6,6}, 1,3-Diallyloxy benzene] | None |  |  |  | 11 ± 18% | 10 ± 22% | -34 ± 41% | 33 ± 12% |  |  |  |  |  | 
C=CCc1ccc(OCCC(C)C)c(OC)c1 [iPent eugenol] | None |  |  |  |  |  |  |  |  | 11 ± 33 (6) % | −98 ± 26 (6) % | −106 ± 24 (6) % | 5 ± 8 (6) % | 
CCCCOc1ccc(O)cc1 [2c{4}, 4-Butoxy phenol] | None |  |  |  | 12 ± 37% | 38 ± 11% | -122 ± 84% | 26 ± 13% | short-term enhancements |  |  |  |  | 
C=CCc1ccc(O)c(OC)c1 [eugenol, 2-methoxy-4-(2-propenyl) phenol, reference compound] | None |  |  |  |  |  |  |  |  |  |  |  |  | 14 ± 10%
C=CCOc1cccc(OCCC(C)C)c1 [3b{5,6}, 1-allyloxy-3-isopentoxybenzene] | None |  |  |  | -69 ± 34% | -85 ± 65% | -99 ± 88% | 15 ± 8% |  |  |  |  |  | 
COc1ccccc1O [2a{1}] | None |  |  |  |  |  |  |  |  | 26 ± 14 (13)^e % | −27 ± 24 (13) % | 9 ± 11 (13) % | −13 ± 9 (13) % | 
C=CCOc1cccc(OCCCC)c1 [3b{4,6}, 1-allyloxy-3-n-butoxybenzene] | None |  |  |  | -66 ± 43% | -101 ± 76% | 8 ± 46% | 27 ± 12% |  |  |  |  |  | 
CCOc1cccc(O)c1 [2b{2}, 3-Ethoxy phenol] | None |  |  |  | 4 ± 20% | 0% | 44 ± 18% | -3 ± 5% |  |  |  |  |  | 
